From patent US7713548B2, “Amorphous solid dispersions” (sanofi-aventis U.S. LLC, priority 2005, dated 2010)

Legend:
[1] = system: animal models of rheumatoid arthritis; test: Animal models of rheumatoid arthritis; format: in vivo; details: by modulating the immune response
[2] = biological target: peripheral-type benzodiazepine receptors (Homo sapiens, UniProt P30536); details: described in U.S. Pat. No. 6,262,045 and 6,395,729; cited from earlier work
[3] = Physical stability of amorphous pure drug substance; format: physicochemical; details: amorphous forms of the pure drug substance; crystallized over time

Sequence of peripheral-type benzodiazepine receptors (P30536 whole entry): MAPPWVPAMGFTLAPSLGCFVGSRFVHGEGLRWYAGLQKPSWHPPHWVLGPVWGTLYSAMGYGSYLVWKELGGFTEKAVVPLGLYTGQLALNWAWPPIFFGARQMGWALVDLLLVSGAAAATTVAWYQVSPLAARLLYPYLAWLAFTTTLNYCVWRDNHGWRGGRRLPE

CN(C)C(=O)Cc1nn(-c2ccccc2)c(=O)c2c1c1ccc(Cl)cc1n2C [7-chloro-N,N,5-trimethyl-4-oxo-3-phenyl-3,5-dihydro-4H-pyridazino[4,5-b]indole-1-acetamide]
pharmacological activity in animal models of rheumatoid arthritis [1]: has shown pharmacological activity
affinity for the peripheral-type benzodiazepine receptors [2]: high affinity
physical stability [3]: limited physical stability
